Reference: patent US6140362A, “Method for inhibiting the growth of mammalian cells” (Rohm and Haas Company, priority 1997, dated 2000)
Like-named read-outs stand apart in the source and are kept apart here.

Key:
[1] = system: mouse lymphoma cell line L5178Y; experiment: Growth inhibition of mouse lymphoma cells (L5178Y), 48 h; format: cell-based; conditions: for inhibition at 2 µM: 2 micromolar; for inhibition at 4 µM: 4 micromolar; for inhibition at 10 µM: read-out: Inhibition of growth; for inhibition at 20 µM: 20 micromolar
Procedure: Effects of compounds on growth of mouse lymphoma cell line L5178Y, were determined as follows. Cells were grown in Fischer's medium (obtained from Life Technologies, Inc., Gaithersburg, Md.) containing 0.24 grams per liter (g/l) sodium pyruvate, 1.12 g/l surfactant (Pluronic F-68, from BASF Corporation, Parsippany, N.J.), and 10% by volume (10% v/v) heat-inactivated horse serum (obtained from Life Technologies, Inc) at 37° C. To 30 ml aliquots of cell suspension (2×10^4 cells per milliliter (mL)) in exponential growth phase were added test compounds dissolved in dimethylsulfoxide (DMSO) at various concentrations such that the final DMSO concentration in the mixtures was 0.25%. Tubes were gassed with 5% CO2 then incubated on a roller drum apparatus. After 48 hours the cells were treated with 0.1% trypsin (Life Technologies, Inc.,) for 10 minutes and counted in a Coulter Counter equipped with a 140 micrometer (μM) aperture. Percent inhibition of growth was calculated by comparing the number of cells in assays containing test compound with the number of cells in controls lacking the test compound.

[2] = system: Nonsmall cell lung cancer (NCIH522); experiment: Growth inhibition of human tumor cell lines: Nonsmall cell lung cancer (NCIH522); format: cell-based; conditions: NCI-H522, cell line B = Nonsmall cell lung cancer (NCIH522), NCI testing
Procedure: (§1) Selected compounds were evaluated by the National Cancer Institute, Bethesda, Md. against 60 human tumor cell lines according to procedures described in Principles and Practices of Oncology, volume 3, issue number 10, pp. 1-12. Results of the testing against representative cell lines including the test compound number, and the GI50 values (μM) are set forth in Table 3. The GI50 value is the concentration required to inhibit cell growth by 50% as compared to untreated control cultures.

Ovarian cancer (OVCAR8) = experiment: Growth inhibition of human tumor cell lines: Ovarian cancer (OVCAR8); format: cell-based; conditions: OVCAR-8, cell line G = Ovarian cancer (OVCAR8), NCI testing
Procedure: as §1

[3] = system: Small cell lung cancer (DMS 114); experiment: Growth inhibition of human tumor cell lines: Small cell lung cancer (DMS 114); format: cell-based; conditions: cell line C = Small cell lung cancer (DMS 114), NCI testing
Procedure: as §1

Colon cancer (HCT116) = experiment: Growth inhibition of human tumor cell lines: Colon cancer (HCT116); format: cell-based; conditions: HCT-116, cell line D = Colon cancer (HCT116), NCI testing
Procedure: as §1

Leukemia (SR) = experiment: Growth inhibition of human tumor cell lines: Leukemia (SR); format: cell-based; conditions: cell line A = Leukemia (SR), NCI testing
Procedure: as §1

tubulin = experiment: Inhibition of microtubule assembly; format: biochemical, calf; conditions: preincubated 1 h at 37° C.
Procedure: Compounds were evaluated for their ability to inhibit tubulin assembly into microtubules by comparing the extent of cold-reversible assembly in the presence of each test compound with controls lacking the test compound. Tubulin was isolated from calf brain tissue by two cycles of assembly/disassembly as described by Vallee, R. B. in Methods in Enzymology, vol. 134, pp. 89-104. Assay mixtures contained 1 mg/ml of purified tubulin in 1 M sodium glutamate, pH 6.6, 1 millimolar (mM) MgCl2, and the test compound, which was added as a solution in DMSO. The final concentration of DMSO in each assay was 2% (v/v). Assay mixtures were preincubated at 37° C. for 1 h, then chilled on ice for 5 min. Microtubule assembly was initiated by addition of guanosine triphosphate (0.1 mM), and incubation at 37° C. Assembly was followed turbidimetrically at 350 nm for 20 minutes (min) using a temperature-controlled cell in a Cary 2200 spectrophotometer. Since microtubules undergo depolymerization at 0° C., assembly was confirmed by measuring the reduction in turbidity following incubation for 30 min at 0° C. The difference in absorbance before and after incubation for 30 min at 0° C. (ΔA350) represents the extent of microtubule assembly. Inhibition of assembly was calculated by subtracting the (ΔA350) values for treatments with test compounds from the (ΔA350) for controls without test compound, and expressing this difference as a percentage of the (ΔA350) value for the control. Results including test compound number, test compound concentration in micromoles per liter (μM) and percent inhibition are set forth in Table 11.

CNS cancer (SF539) = experiment: Growth inhibition of human tumor cell lines: CNS cancer (SF539); format: cell-based; conditions: SF-539, cell line E = CNS cancer (SF539), NCI testing
Procedure: as §1

Renal cancer (CAKI1) = experiment: Growth inhibition of human tumor cell lines: Renal cancer (CAKI1); format: cell-based; conditions: CAKI-1, cell line H = Renal cancer (CAKI1), NCI testing
Procedure: as §1

Melanoma (SKMEL-2) = experiment: Growth inhibition of human tumor cell lines: Melanoma (SKMEL-2); format: cell-based; conditions: SK-MEL-2, cell line F = Melanoma (SKMEL-2), NCI testing
Procedure: as §1

With `CCC(C)(NC(=O)c1ccc(NC(=O)OC)cc1)C(=O)CCl` (centres unmarked) [Compound 1] the inhibition at 2 µM ([1]; 48 hours) was 92%.
In the case of `CCC(C)(NC(=O)c1cc(Cl)cc(C#N)c1)C(=O)CCl` (centres unmarked) [Compound 3], the inhibition at 2 µM ([1]; 48 hours) was 94%.
`CCC(C)(NC(=O)c1cc(Cl)cc(C=NOC)c1)C(=O)CCl` (centres unmarked) [Compound 4] gave a GI50 [2] of 2140 nM, a GI50 (Ovarian cancer (OVCAR8)) of 2620 nM and a GI50 [3] of 1540 nM. For the same compound, the inhibition at 2 µM ([1]; 48 hours) was 95%, the GI50 (Colon cancer (HCT116)) was 2580 nM and the GI50 (Leukemia (SR)) was 590 nM. For the same compound, the “Percent inhibition of microtubule assembly” value (from here on “Percent inhibition”) (tubulin; 50 μM) was 89.8%, the GI50 (CNS cancer (SF539)) was 2310 nM and the GI50 (Renal cancer (CAKI1)) was 3070 nM. It also gave a GI50 (Melanoma (SKMEL-2)) of 3240 nM.
For `CCC(C)(NC(=O)c1cc(C)cc(Br)c1)C(=O)CCl` (centres unmarked) [Compound 5], the inhibition at 2 µM ([1]; 48 hours) was 91% and the “Percent inhibition” value (tubulin; 50 μM) was 88.7%.
For `CCCC(NC(=O)c1cc(Cl)cc(Cl)c1)C(=O)C(Br)Br` (centres unmarked) [Compound 6], the inhibition at 2 µM ([1]; 48 hours) was 75%.
In the case of `CCC(C)(NC(=O)c1cccc(Br)c1)C(=O)C(Br)Br` (centres unmarked) [Compound 7], the GI50 [2] was 1080 nM, the GI50 (Ovarian cancer (OVCAR8)) was 3010 nM and the GI50 [3] was 1830 nM. The inhibition at 2 µM ([1]; 48 hours) was 92%, the GI50 (Colon cancer (HCT116)) was 3390 nM and the GI50 (Leukemia (SR)) was 2320 nM. The “Percent inhibition” value (tubulin; 5 μM) was 97.0%, the GI50 (CNS cancer (SF539)) was 2290 nM and the GI50 (Renal cancer (CAKI1)) was 2820 nM. For the same compound, the GI50 (Melanoma (SKMEL-2)) was 2740 nM.
For `CC(C)C(C)(NC(=O)c1cc(Cl)cc(Cl)c1)C(=O)C(Br)Br` (centres unmarked) [Compound 8], the inhibition at 2 µM ([1]; 48 hours) was 83%.
`CC(C)CC(C)(NC(=O)c1cc(Cl)cc(Cl)c1)C(=O)C(Br)Br` (centres unmarked) [Compound 9] gave an inhibition at 2 µM ([1]; 48 hours) of 97%.
Work on `CCCCCC(C)(NC(=O)c1cc(Cl)cc(Cl)c1)C(=O)C(Br)Br` (centres unmarked) [Compound 10] yielded an inhibition at 2 µM ([1]; 48 hours) of 96%.
Work on `CCCC(C)(NC(=O)c1cc(Cl)cc(Cl)c1)C(=O)C(Br)Br` (centres unmarked) [Compound 11] yielded an inhibition at 2 µM ([1]; 48 hours) of 88%.
`CCC(CC)(NC(=O)c1cc(Cl)cc(Cl)c1)C(=O)C(Br)Br` [Compound 12] gave an inhibition at 2 µM ([1]; 48 hours) of 85%.
Compound `CCC(C)(NC(=O)c1cc(Cl)cc(Cl)c1)C(=O)C(Br)Br` (centres unmarked) [Compound 13] has a GI50 [2] of 280 nM, a GI50 (Ovarian cancer (OVCAR8)) of 1820 nM and a GI50 [3] of 240 nM. It also gave an inhibition at 2 µM ([1]; 48 hours) of 98%, a GI50 (Colon cancer (HCT116)) of 1390 nM and a GI50 (Leukemia (SR)) of 280 nM. For the same compound, the “Percent inhibition” value (tubulin; 5 μM) was 90.9%, the GI50 (CNS cancer (SF539)) was 1900 nM and the GI50 (Renal cancer (CAKI1)) was 1920 nM. It also gave a GI50 (Melanoma (SKMEL-2)) of 2080 nM.
With `CC(C)(NC(=O)c1cc(Cl)cc(Cl)c1)C(=O)C(Cl)Br` (centres unmarked) [Compound 15] the GI50 [2] was 1290 nM, the GI50 (Ovarian cancer (OVCAR8)) was 12100 nM and the GI50 [3] was 6650 nM. It also gave an inhibition at 2 µM ([1]; 48 hours) of 90%, a GI50 (Colon cancer (HCT116)) of 10400 nM and a GI50 (Leukemia (SR)) of 2850 nM. For the same compound, the “Percent inhibition” value (tubulin; 50 μM) was 94.6%, the GI50 (CNS cancer (SF539)) was 10800 nM and the GI50 (Renal cancer (CAKI1)) was 10800 nM. The GI50 (Melanoma (SKMEL-2)) was 16600 nM.
`CC(C)(NC(=O)c1ccccc1)C(=O)C(Br)Br` [Compound 16] was tested, and the inhibition at 2 µM ([1]; 48 hours) was 98%.
In the case of `CCC(C)(NC(=O)c1cc(Cl)c(N)c(C=NOC)c1)C(=O)CCl` (centres unmarked) [Compound 18, 4-amino-3-chloro-5-methoxyiminomethyl-N-(3-chloro-1-ethyl-1-methyl-2-oxopropyl)benzamide], the inhibition at 2 µM ([1]; 48 hours) was 94%.
`CCC(C)(NC(=O)c1cccc(C#N)c1)C(=O)CCl` (centres unmarked) [Compound 20] was tested, and the inhibition at 4 µM ([1]; 48 hours) was 96%.
`CCC(C)(NC(=O)c1cc(Br)c(C)c(Br)c1)C(=O)CCl` (centres unmarked) [Compound 21] was tested, and the inhibition at 4 µM ([1]; 48 hours) was 97%.
With `CCC(C)(NC(=O)c1cccc(NC(=O)OC)c1)C(=O)CCl` (centres unmarked) [Compound 22] the inhibition at 10 µM ([1]; 10 micromolar, 48 hours) was 96%.
`CCC(C)(NC(=O)c1cccc(C=NOC)c1)C(=O)CCl` (centres unmarked) [Compound 24] showed an inhibition at 10 µM ([1]; 10 micromolar, 48 hours) of 96%.
In the case of `CCC(C)(NC(=O)c1cc(C)cc(Cl)c1)C(=O)CCl` (centres unmarked) [Compound 25], the inhibition at 10 µM ([1]; 10 micromolar, 48 hours) was 95% and the “Percent inhibition” value (tubulin; 50 μM) was 30.9%.
`CC(C)(NC(=O)c1cc(Cl)cc(Cl)c1)C(=O)CN=C=S` [Compound 27] was tested, and the inhibition at 10 µM ([1]; 48 h) was 61%.
With `CC(C)(NC(=O)c1cc(Cl)cc(Cl)c1)C(=O)CBr` [Compound 29] the inhibition at 10 µM ([1]; 10 micromolar, 48 hours) was 95%.
`CCC(C)(NC(=O)c1cc(Cl)c(C)c(Br)c1)C(=O)CCl` (centres unmarked) [Compound 30] showed an inhibition at 20 µM ([1]; 48 hours) of 97%.
In the case of `CCC(C)(NC(=O)c1cc(Cl)c(F)c(Cl)c1)C(=O)CCl` (centres unmarked) [Compound 31], the inhibition at 20 µM ([1]; 48 hours) was 97%.
`CCC(C)(NC(=O)c1cc(Cl)c(C)c(Cl)c1)C(=O)CCl` (centres unmarked) [Compound 32] showed an inhibition at 20 µM ([1]; 48 hours) of 96%.
`CCC(C)(NC(=O)c1cc(Cl)c(Cl)c(Cl)c1)C(=O)CCl` (centres unmarked) [Compound 33] was tested, and the inhibition at 20 µM ([1]; 48 hours) was 94% and the “Percent inhibition” value (tubulin; 50 μM) was 12.2%.
